# In patent US20140178433A1, “[…] INCREASED ANTIGENIC MASS” (priority 2012, published 2014):
# Experiments:
# [1] = tested on: Leptospira of serogroup Icterohaemorrhagiae; assay: Antigenic mass of fermenter culture by antigen Elisa, serogroup Icterohaemorrhagiae; assay type: cell-based, L. interrogans (sensu lato); conditions: for antigenic mass: average of days 3-5; for Ag. mass, average of days 4-5, Ag U/10^9 cells/ml: standard BSA, total 105 μg/ml; for Ag. mass, average of days 3-5, Ag U/10^9 cells/ml: EMJH with standard BSA; for relative Ag. mass (%), average of days 4-5: relative to non-supplemented = 100; for Ag U/10^9 cells/ml, at 3 days: different BSA ingredients in EMJH medium, no supplementation
# Method: (§1) During all fermentation experiments the temperature was controlled at about 29° C. The medium was aerated with headspace airflow, and the dissolved oxygen (pO2) concentration was controlled by automatic variation of the agitation-rate, to maintain a set pO2 concentration. Temperature, pH and pO2 concentration were monitored online, but pH and foam formation were not controlled.
# (§2) Supplementation was done either with pure linoleic acid (Sigma Aldrich, >99% pure) as a 10% v/v stock in absolute ethanol (JT Baker). Alternatively, linoleic acid was supplemented by using a BSA that was created with a high level of linoleic acid (high LA BSA). This high LA BSA was used either to replace a standard BSA in EMJH medium, or was used in addition to BSA in the EMJH medium, in which case it was added as a 25% w/v stock solution in sterile water. The high LA BSA or the pure linoleic acid/ethanol supplements were fed to a fermentor over the course of 4 hours, at 0.1-0.2 ml/hour, until the fermentor culture had received a desired total amount of linoleic acid. Different total available levels of linoleic acid have been tested, of between about 5 and 425 μg/ml in the total volume. The fermenter cultures of Leptospira were supplemented at different cell-densities i.e. at early-, mid- or end phase culture. Typical mid-phase cell density was at about 5×10̂8 cells/ml, which was reached during day 2 of the main incubation. Upon supplementation with linoleic acid from the pure linoleic acid in ethanol stock, sometimes a small decrease in pH was noted, which was corrected by applying some NaOH.
# (§3) 2004. Royal Tropical Institute, Amsterdam.
# An arbitrary number of antigen units is affixed to the sample, for example: 1000 Units/ml.
# [2] = tested on: Leptospira of serogroup Icterohaemorrhagiae; assay: Biomass (total cell count, Petroff-Hausser counting chamber) of fermenter culture, serogroup Icterohaemorrhagiae; assay type: cell-based, L. interrogans (sensu lato)
# Method: as §1
# as §2, with “Typical mid-phase cell density was at about 5×10̂8 cells/ml, which was reached during day 2 of the main incubation. Upon supplementation with linoleic acid from the pure linoleic acid in ethanol stock, sometimes a small decrease in pH was noted, which was corrected by applying some NaOH.” left out
# [3] = tested on: Leptospira from serogroup Sejroe (serovar Hardjo); assay: Antigenic mass of fermenter culture by antigen Elisa, serogroup Sejroe; assay type: cell-based, L. interrogans (sensu lato); conditions: for Antigenic mass, 2 day average, Ag U/10^9 cells/ml: average of days 5 and 6
# Method: as §2, §3
# (§4) In a next study it was confirmed that the increase in antigenic mass upon supplementation with linoleic acid is a general phenomenon in Leptospira. In several experiments cultures of Leptospira strains from several serogroups were proliferated in fermenters in similar set-ups as before and with a similar supplementation: in EMJH medium with either standard BSA or with high LA BSA; some cultures were further supplemented with 100 μg/ml linoleic acid, from pure linoleic acid in ethanol. Results of analyses of biomass and antigen amount are presented in FIGS. 6-7 (Sejroe), and 8-9 (Grippotyphosa), and are summarised in Table 5.
# Some increase in biomass was observed after supplementation, but the increase in antigen amount was much higher. The fermenter was run for 6 days, and scores for these experiments were averaged over days 5 and 6 of the culture.
# [4] = tested on: Leptospira from serogroup Grippotyphosa; assay: Antigenic mass of fermenter culture by antigen Elisa, serogroup Grippotyphosa; assay type: cell-based, L. interrogans (sensu lato); conditions: for Antigenic mass, 2 day average, Ag U/10^9 cells/ml: average of days 4 and 5
# Method: as §2, §3, §4
# For serogroup Grippotyphosa the scores were averaged over days 4 and 5 of the culture.
# [5] = tested on: Leptospira from serogroup Australis (serovar Bratislava); assay: Antigenic mass of fermenter culture by antigen Elisa, serogroup Australis; assay type: cell-based, L. interrogans (sensu lato)
# Method: as §2, §3, §4
# Similarly, for serogroup Australis (serovar Bratislava), an increase in antigenic mass with 45% was observed; here the low LA BSA medium was used for supplementation.
# [6] = tested on: Leptospira culture; assay: Linoleic acid supplementation of a Leptospira culture, serogroup not stated; assay type: cell-based
# Method: as §2
# [7] = 100 μg/ml added, total 125 μg/ml, relative to high LA BSA culture = 100
# [8] = 100 μg/ml pure linoleic acid in ethanol added to high LA BSA medium, C18:2 total 125 μg/ml
# [9] = EMJH with high LA BSA, C18:2 total 25 μg/ml
# [10] = EMJH with high LA BSA, C18:2 total 25 μg/ml, serves as reference = 100
compound,measurement,setting,value
"CCCCCC=CCC=CCCCCCCCC(=O)O [linoleic acid, 9,12-octadecadienoic acid]",antigenic mass,"[1]; 100 μg/ml pure linoleic acid in ethanol added on day 2 (mid-exponential), EMJH with high LA BSA",1767 Ag. U/1×10̂9 cells
same,"Ag. mass, average of days 4-5, Ag U/10^9 cells/ml",[1]; 100 μg/ml pure linoleic acid in ethanol supplemented at 1 × 10^8 cells/ml (early phase),1783 Ag U/10^9 cells/ml
same,"Ag. mass, average of days 4-5, Ag U/10^9 cells/ml",[1]; 100 μg/ml pure linoleic acid in ethanol supplemented at 5 × 10^8 cells/ml (mid phase),1564 Ag U/10^9 cells/ml
same,"Ag. mass, average of days 4-5, Ag U/10^9 cells/ml",[1]; 100 μg/ml pure linoleic acid in ethanol supplemented at 9 × 10^8 cells/ml (late phase),1656 Ag U/10^9 cells/ml
same,increase in antigenic mass after supplementation at different phases,"[1]; 100 μg/ml, early-, mid-, late exponential phase, sampling at 2, 4 and 8 hours after the suppletion",acute increase in antigenic mass can be induced at all phases of the Leptospira culture
same,increase of the antigenic mass,"[1]; 200 μg/ml pure linoleic acid in ethanol, EMJH with high LA BSA",slightly less increase of the antigenic mass compared to that of the 100 μg/ml group
same,increase of the antigenic mass,[1]; exemplary increase following application of the method (linoleic acid supplementation),121%
same,"Ag. mass, average of days 3-5, Ag U/10^9 cells/ml","[1]; supplemented 75 μg/ml in mid-exponential phase, C18:2 total 80 μg/ml",1450 Ag U/10^9 cells/ml
same,"relative Ag. mass (%), average of days 3-5","[1]; supplemented 75 μg/ml, C18:2 total 80 μg/ml, relative to non-supplemented culture with standard BSA = 100",199%
same,"Ag. mass, average of days 3-5, Ag U/10^9 cells/ml","[1]; supplemented 150 μg/ml in mid-exponential phase, C18:2 total 155 μg/ml",1550 Ag U/10^9 cells/ml
same,"relative Ag. mass (%), average of days 3-5","[1]; supplemented 150 μg/ml, C18:2 total 155 μg/ml, relative to non-supplemented culture with standard BSA = 100",213%
same,"relative Ag. mass (%), average of days 4-5","[1]; supplemented at 1 × 10^8 cells/ml, 100 μg/ml",226%
same,"relative Ag. mass (%), average of days 4-5","[1]; supplemented at 5 × 10^8 cells/ml, 100 μg/ml",198%
same,"relative Ag. mass (%), average of days 4-5","[1]; supplemented at 9 × 10^8 cells/ml, 100 μg/ml",210%
same,toxicity for the bacteria (cell numbers decreased rapidly after supplementation),"[2]; 400 μg/ml pure linoleic acid in ethanol, EMJH with high LA BSA",induced toxicity
same,relative Ag. mass (%),[3]; [7],284%
same,"Antigenic mass, 2 day average, Ag U/10^9 cells/ml",[3]; [8],814 Ag U/10^9 cells/ml
same,increase of the antigenic mass,[3]; supplementation with 100 μg/ml linoleic acid of high LA BSA culture medium,184%
same,relative Ag. mass (%),[4]; [7],163%
same,"Antigenic mass, 2 day average, Ag U/10^9 cells/ml",[4]; [8],8286 Ag U/10^9 cells/ml
same,increase of the antigenic mass,[4]; supplementation with linoleic acid (100 μg/ml) of high LA BSA medium,63%
same,relative Ag. mass (%),"[5]; 100 μg/ml added, total 105 μg/ml, relative to non-supplemented culture = 100",145%
same,"Antigenic mass, 2 day average, Ag U/10^9 cells/ml","[5]; 100 μg/ml pure linoleic acid added to low LA BSA medium, C18:2 total 105 μg/ml",12822 Ag U/10^9 cells/ml
same,increase of the antigenic mass,[5]; supplementation of low LA BSA medium,45%
same,increase of the antigenic mass,[6]; 25 μg linoleic acid available per ml of culture compared to about 5 μg/ml,significant increase of the antigenic mass
same,toxicity,"[6]; highest availability level tested, 425 μg/ml, preparation of pure linoleic acid",some toxicity was noticeable for some serovars
"BSA, BovoLep ®: BSA (Bovogen, Australia) recommended for Leptospira culture; standard BSA enriched with a number of vegetable fatty acids",effect on antigenic mass,[1]; BSA ingredient in EMJH medium,no significant effect
same,"Ag U/10^9 cells/ml, at 3 days",[1],498 Ag U/10^9 cells/ml
same,effect on biomass of Leptospira,[2]; BSA ingredient in EMJH medium,did increase the biomass
"BSA, BovoStar ®: a standard all-purpose BSA from the same manufacturer (Bovogen)","Ag U/10^9 cells/ml, at 3 days",[1],533 Ag U/10^9 cells/ml
"BSA, Millipore: a standard commercial BSA (Millipore)","Ag U/10^9 cells/ml, at 3 days",[1],525 Ag U/10^9 cells/ml
high LA BSA: BSA that was created with a high level of linoleic acid,increase of antigenic mass,[1]; 25 instead of 5 μg/ml linoleic acid available,124%
same,antigenic mass,"[1]; high LA BSA at 1% w/v in EMJH, 25 μg/ml linoleic acid available",1636 Ag U/1×10̂9 cells
same,"Ag. mass, average of days 3-5, Ag U/10^9 cells/ml","[1]; supplemented 50 μg/ml linoleic acid as high LA BSA solution, C18:2 total 55 μg/ml",1612 Ag U/10^9 cells/ml
same,"relative Ag. mass (%), average of days 3-5","[1]; supplemented 50 μg/ml linoleic acid as high LA BSA, C18:2 total 55 μg/ml, relative to non-supplemented culture = 100",221%
same,"Antigenic mass, 2 day average, Ag U/10^9 cells/ml",[3]; [9],287 Ag U/10^9 cells/ml
same,relative Ag. mass (%),[3]; [10],100%
same,"Antigenic mass, 2 day average, Ag U/10^9 cells/ml",[4]; [9],5074 Ag U/10^9 cells/ml
same,relative Ag. mass (%),[4]; [10],100%
